Assay results from US8299091B2, “Aminoisoquinoline thrombin inhibitor with improved bioavailability” (MSD Oss B.V., priority 2006, dated 2012).
Structures can show the parent of a compound that is named as a salt. Where two headings read alike, the source gives them in different places.

Assays:
human α-thrombin = biological target: T1, human α-thrombin (Homo sapiens, UniProt P00734); assay: Assay of thrombin activity (chromogenic substrate S-2238); format: biochemical; details: for IC50: 10 min pre-incubation at 37° C, substrate S-2238; for Ki: Hanes-Woolf analysis, S-2238 concentration varied
T1 construct: human α-thrombin
Procedure: Thrombin inhibitory activity was assessed by pre-incubating the test compound at a variety of concentrations with human α-thrombin at 37° C. After 10 min, the chromogenic substrate H-D-Phe-Pipecolinyl-Arg-ρ-nitroanilide (S-2238) was added to the mixture and the change in absorbance measured over the following 8 min.

[1] = Determination of bioavailability / pharmacokinetics in rats; format: in vivo; details: male, Wistar Ola, plasma, rat, saline; for half-life: read-out: T½ (converted); for Vd: read-out: Vss
Excerpt: Determination of Bioavailability of Compounds 1A, 2A and 3A in Rats
Male Wistar Ola rats (˜250 g). Food and water were available ad libitum throughout the studies.
For intravenous pharmacokinetic studies, catheters (Portex polythene—ID 0.58 mm, OD 0.96 mm with a tip made from SF Medical silicone tubing, SFM1-1350) were inserted into the right jugular vein under isoflurane anaesthesia. The tubing was exteriorised at the back of the neck, filled with heparinised saline (100 Um/ml) and stoppered. Animals were allowed a minimum of 48 h recovery before dosing.
Compounds 1A, 2A and 3A were administered orally (PO). Compounds 1B, 2B and 3B were administered intravenously (IV). Serial blood samples (for plasma) were taken from a lateral vein at points from 3 min to 24 hrs (terminal sample by cardiac puncture) according to a matrix design protocol (3 samples per time point). Plasma samples were stored at −20° C. until analysis.
Plasma samples were analyzed for the pertinent free acid thrombin derivatives 1B, 2B and 3B using an LC-MS method. Cmax (maximum plasma concentrations) and AUC values were determined from the mean plasma concentration—time profiles.
Noncompartmental pharmacokinetic analysis was performed using WinNonlin Professional 3.1 and 4.1.

[2] = as above; format: in vivo; details: male, Wistar Ola, plasma, rat
[3] = IV 5 mg/kg, mean of two studies
[4] = PO 10 mg/kg of the free acid itself, saline

| SMILES | IC50 (human α-thrombin) | Ki (human α-thrombin) | AUC ([1]; IV 2 mg/kg) | clearance ([1]; IV 2 mg/kg) | half-life ([1]; IV 2 mg/kg) | Vd ([1]; IV 2 mg/kg) | also measured |
| --- | --- | --- | --- | --- | --- | --- | --- |
| CCCOC(=O)CN[C@H](Cc1ccccc1)C(=O)N1CCC[C@H]1C(=O)NCc1ccc2c(N)nccc2c1 [Compound 2A, N-(2-propoxy-2-oxoethyl)-D-phenylalanyl-N-[(1-amino-6-isoquinolyl)methyl]-L-prolinamide hydrochloride] | 573 nM | 34.5 nM | – | – | – | – | – |
| CCCOC(=O)CN[C@H](Cc1ccc(OC)cc1)C(=O)N1CCC[C@H]1C(=O)NCc1ccc2c(N)nccc2c1 [Compound 3A, N-(2-propoxy-2-oxoethyl)-O-methyl-D-tyrosinyl-N-[(1-amino-6-isoquinolyl)methyl]-L-prolinamide hydrochloride] | 197 nM | 1.8 nM | – | – | – | – | – |
| Nc1nccc2cc(CNC(=O)[C@@H]3CCCN3C(=O)[C@@H](Cc3ccccc3)NCC(=O)O)ccc12 [Compound 2B, N-(carboxymethyl)-D-phenylalanyl-N-[(1-amino-6-isoquinolyl)methyl]-L-prolinamide trifluoroacetate] | – | – | 659 ng·h/mL | 54 mL/min/kg | 36.6 min | 2.4 L/kg | – |
| CCCOC(=O)CN[C@@H](C(=O)N1CCC[C@H]1C(=O)NCc1ccc2c(N)nccc2c1)C(c1ccccc1)c1ccccc1 [Compound 1A, N-(2-oxo-2-propoxyethyl)-β-phenyl-D-phenylalanyl-N-[(1-amino-6-isoquinolinyl)methyl]-L-prolinamide] | 13 nM | 1 nM | – | – | – | – | – |
| Cl.Nc1nccc2cc(CNC(=O)[C@@H]3CCCN3C(=O)[C@H](NCC(=O)O)C(c3ccccc3)c3ccccc3)ccc12 [Compound 1B, N-(carboxymethyl)-β-phenyl-D-phenylalanyl-N-[(1-amino-6-isoquinolyl)methyl]-L-prolinamide hydrochloride] | 12.6 nM | 0.9 nM | – | – | – | – | AUC [1, 3]: 4860 ng·h/mL; clearance [1, 3]: 17 mL/min/kg; half-life [1, 3]: 19.2 min; Vd [1, 3]: 0.48 L/kg; bioavailability ([2]; PO 10 mg/kg of the free acid itself vs IV): 1.3%; AUC [2, 4]: 119 ng·h/mL; Cmax [2, 4]: 35 ng/mL; Tmax [2, 4]: 72 min |
| COc1ccc(C[C@@H](NCC(=O)O)C(=O)N2CCC[C@H]2C(=O)NCc2ccc3c(N)nccc3c2)cc1 [Compound 3B, N-(carboxymethyl)-O-methyl-D-tyrosinyl-N-[(1-amino-6-isoquinolyl)methyl]-L-prolinamide trifluoroacetate] | 358 nM | 5.4 nM | 1010 ng·h/mL | 34 mL/min/kg | 9.6 min | 0.46 L/kg | – |
